Data published in US7988776B2, “Coloring composition, thermal transfer recording ink sheet, thermal transfer recording method, color toner, inkjet ink, color filter, and azo dye” (Fujifilm Corporation, priority 2007, dated 2011).

How the values were obtained:
Assay type in all cases: physicochemical
[1] = Absorption spectrometry in ethyl acetate solution (maximum absorption wavelength); details: concentration 1×10^−6 mol/L, optical path length 10 mm
Description: The thus-obtained compounds (1), (2), (5) and (10) were analyzed absorption spectrometry in an ethyl acetate solution (concentration: 1×10^−6 mol/L, optical path length: 10 mm).

[2] = Dye solubility in ink sheet construction; set-up: key: A (easily soluble); B (soluble); C (difficult to dissolve, but soluble); details: dye-donating layer-forming coating composition, methyl ethyl ketone/toluene (1/1)
Excerpt: A polyester film (Lumirror, trade name by Toray) having a thickness of 6.0 μm and processed for heat-resistant lubrication with a thermosetting acrylic resin (thickness 1 μm) on its back was used as a support.
The dye solubility was ranked in three, A (easily soluble), B (soluble) r C (difficult to dissolve, but soluble).

[3] = Light fastness of recorded images under Xe light; details: retention of status A reflection density 1.0 after Xe light (17000 lux) for 7 days
Description: Next, the recorded samples were exposed to an Xe light (17000 lux) for 7 days, and tested for the light stability (light fastness) of the recorded images. After the exposure, the status A reflection density of the part of each sample having an original status A reflection density of 1.0 before the exposure was measured, and the retention (by percentage) to the reflection density of 1.0 after exposure to that before exposure indicates the image stability. With the retention percentage, the samples were ranked in three, A (from 80% to less than 100%), B (from 60% to less than 80%), C (less than 60%).

For `C=CCN(CC=C)c1ccc(/N=N/c2c(C#N)c(C(C)(C)C)nn2S(C)(=O)=O)c(NC(C)=O)c1` [(5)], which “Maximum Absorption Wavelength” value [1] is on record?
The value was 539 nm.

What about the Solubility [2] of the same compound?
Its Solubility is “A”.

What about the “Light Fastness” value [3] of the same compound?
Its value is “A (A (from 80% to less than 100%))”.
